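Each compound was tested at five concentrations against cells in 96-well plates for 48 hours. GI50 marks 50% less growth.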 Active and inactive are the calls of the source. No stated cut-off is given here; in the data, active = GI50 up to about 1.1 µM and inactive = higher.
Columns and labels:
Assay in all cases: NCI tumour cell line growth inhibition, 48 h
[1] = tested on: KM12
[2] = tested on: OVCAR-5
[3] = tested on: SW-620
[4] = tested on: NCI-H226
[5] = tested on: U-251
[6] = tested on: SF-295
[7] = tested on: HL-60
[8] = tested on: COLO 205
[9] = tested on: HCC 2998
[10] = tested on: SK-MEL-2
[11] = tested on: SNB-78
[12] = tested on: MOLT-4
[13] = tested on: 786-0
[14] = tested on: HOP-92
[15] = tested on: UACC-62
[16] = tested on: SN12C
[17] = tested on: CAKI-1
[18] = tested on: SNB-19
[19] = tested on: NCI/ADR-RES
[20] = tested on: BT-549

O=[N+]([O-])c1cccc(C2=NOC(C3CCCCC3)C2)c1 (centres undefined)
GI50 [1]: > 100 µM (inactive) | GI50 [2]: 92 µM (inactive) | GI50 [3]: > 100 µM (inactive) | GI50 [4]: > 100 µM (inactive) | GI50 [5]: > 100 µM (inactive) | GI50 [6]: 94.6 µM (inactive) | GI50 [7]: > 100 µM (inactive) | GI50 [8]: > 100 µM (inactive) | GI50 [9]: > 100 µM (inactive) | GI50 [10]: > 100 µM (inactive) | GI50 [11]: > 100 µM (inactive) | GI50 [12]: > 100 µM (inactive) | GI50 [13]: > 100 µM (inactive) | GI50 [14]: > 100 µM (inactive) | GI50 [15]: > 100 µM (inactive) | GI50 [16]: > 100 µM (inactive)

CC1=CCC(O)C=CC(C)C(O)C(C)C=C(C)C(=O)c2c(O)c(C)cc3c2C(=O)C(N)=C(NC(=O)/C=C\C=C/C=CC(C)C(O)CC1=O)C3=O (centres undefined)
GI50 [1]: > 100 µM (inactive) | GI50 [2]: > 100 µM (inactive) | GI50 [3]: > 100 µM (inactive) | GI50 [4]: > 100 µM (inactive) | GI50 [17]: > 100 µM (inactive) | GI50 [5]: > 100 µM (inactive) | GI50 [6]: > 100 µM (inactive) | GI50 [7]: 0.292 µM (active) | GI50 [8]: 37.1 µM (inactive) | GI50 [9]: > 100 µM (inactive) | GI50 [10]: > 100 µM (inactive) | GI50 [18]: > 100 µM (inactive) | GI50 [11]: 17.3 µM (inactive) | GI50 [12]: 63.7 µM (inactive) | GI50 [13]: > 100 µM (inactive) | GI50 [14]: > 100 µM (inactive) | GI50 [15]: > 100 µM (inactive) | GI50 [16]: > 100 µM (inactive)

COc1cc([C@H]2c3cc4c(cc3[C@H](NCc3ccc(F)cc3)C3COC(=O)[C@H]32)OCO4)cc(OC)c1O (some centres undefined)
GI50 [1]: 3.33 µM (inactive) | GI50 [2]: 8.91 µM (inactive) | GI50 [3]: 1.87 µM (inactive) | GI50 [4]: 2.03 µM (inactive) | GI50 [5]: 1.09 µM (active) | GI50 [6]: 2.25 µM (inactive) | GI50 [7]: 0.815 µM (active) | GI50 [8]: 13.6 µM (inactive) | GI50 [9]: 10.5 µM (inactive) | GI50 [10]: 15.6 µM (inactive) | GI50 [18]: 2.44 µM (inactive) | GI50 [11]: 24.7 µM (inactive) | GI50 [12]: 0.344 µM (active) | GI50 [13]: 1.84 µM (inactive) | GI50 [14]: 2.57 µM (inactive) | GI50 [15]: 1.56 µM (inactive) | GI50 [16]: 1.96 µM (inactive)

COc1ccc2nc3cc(Cl)ccc3c(NCCCN(CCCl)CCCl)c2c1
GI50 [1]: 0.052 µM (active) | GI50 [2]: 0.034 µM (active) | GI50 [3]: 0.0116 µM (active) | GI50 [4]: 0.0385 µM (active) | GI50 [19]: < 0.01 µM (active) | GI50 [17]: < 0.01 µM (active) | GI50 [5]: 0.0185 µM (active) | GI50 [6]: 0.0142 µM (active) | GI50 [7]: < 0.01 µM (active) | GI50 [8]: < 0.01 µM (active) | GI50 [9]: 0.0596 µM (active) | GI50 [20]: 0.129 µM (active) | GI50 [10]: 0.14 µM (active) | GI50 [18]: 0.0225 µM (active) | GI50 [11]: 0.0845 µM (active) | GI50 [12]: < 0.01 µM (active) | GI50 [13]: 0.0101 µM (active) | GI50 [14]: 0.0126 µM (active) | GI50 [15]: 0.0156 µM (active) | GI50 [16]: 0.014 µM (active)

O=C(c1ccccc1)N1CCN2CCN=C(c3ccccc3)C21c1ccccc1 (centres undefined)
GI50 [1]: > 100 µM (inactive) | GI50 [3]: > 100 µM (inactive) | GI50 [4]: 19.5 µM (inactive) | GI50 [5]: > 100 µM (inactive) | GI50 [6]: 52.1 µM (inactive) | GI50 [7]: 19.2 µM (inactive) | GI50 [8]: > 100 µM (inactive) | GI50 [9]: > 100 µM (inactive) | GI50 [10]: > 100 µM (inactive) | GI50 [18]: 38 µM (inactive) | GI50 [11]: > 100 µM (inactive) | GI50 [12]: 20.2 µM (inactive) | GI50 [13]: > 100 µM (inactive) | GI50 [14]: 17.1 µM (inactive) | GI50 [15]: 18.1 µM (inactive)

COc1c(C)cc(O)cc1C=O
GI50 [1]: 93.3 µM (inactive) | GI50 [2]: > 100 µM (inactive) | GI50 [3]: > 100 µM (inactive) | GI50 [4]: > 100 µM (inactive) | GI50 [17]: > 100 µM (inactive) | GI50 [5]: > 100 µM (inactive) | GI50 [6]: > 100 µM (inactive) | GI50 [7]: > 100 µM (inactive) | GI50 [8]: > 100 µM (inactive) | GI50 [9]: > 100 µM (inactive) | GI50 [10]: > 100 µM (inactive) | GI50 [18]: > 100 µM (inactive) | GI50 [11]: > 100 µM (inactive) | GI50 [12]: > 100 µM (inactive) | GI50 [13]: > 100 µM (inactive) | GI50 [14]: > 100 µM (inactive) | GI50 [15]: > 100 µM (inactive) | GI50 [16]: > 100 µM (inactive)
